# Calls of active or inactive are those of the source. The rule behind the calls is not given here.
# Molecular target: Perilipin-5 (Homo sapiens) + 1-acylglycerol-3-phosphate O-acyltransferase ABHD5 (Homo sapiens) (UniProt Q00G26+Q8WTS1)
# Experiment: PubChem AID 652130
# Details: ABHD5/PLIN5 interaction, luminescence, HEK293T-produced proteins
# Perilipin-5 (Homo sapiens) + 1-acylglycerol-3-phosphate O-acyltransferase ABHD5 (Homo sapiens), sequence (Q00G26 whole entry, looked up): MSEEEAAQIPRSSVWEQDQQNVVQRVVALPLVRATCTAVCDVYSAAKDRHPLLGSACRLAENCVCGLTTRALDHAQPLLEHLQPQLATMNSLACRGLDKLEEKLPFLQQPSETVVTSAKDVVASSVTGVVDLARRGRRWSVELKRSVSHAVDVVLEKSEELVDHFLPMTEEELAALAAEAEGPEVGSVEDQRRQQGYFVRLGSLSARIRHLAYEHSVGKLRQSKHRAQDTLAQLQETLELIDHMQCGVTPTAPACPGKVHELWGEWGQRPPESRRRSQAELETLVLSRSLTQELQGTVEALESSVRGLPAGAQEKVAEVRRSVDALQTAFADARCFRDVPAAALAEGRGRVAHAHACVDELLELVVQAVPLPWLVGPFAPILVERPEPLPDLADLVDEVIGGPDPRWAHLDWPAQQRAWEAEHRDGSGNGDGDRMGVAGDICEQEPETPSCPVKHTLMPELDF
# Perilipin-5 (Homo sapiens) + 1-acylglycerol-3-phosphate O-acyltransferase ABHD5 (Homo sapiens), sequence (Q8WTS1 whole entry, looked up): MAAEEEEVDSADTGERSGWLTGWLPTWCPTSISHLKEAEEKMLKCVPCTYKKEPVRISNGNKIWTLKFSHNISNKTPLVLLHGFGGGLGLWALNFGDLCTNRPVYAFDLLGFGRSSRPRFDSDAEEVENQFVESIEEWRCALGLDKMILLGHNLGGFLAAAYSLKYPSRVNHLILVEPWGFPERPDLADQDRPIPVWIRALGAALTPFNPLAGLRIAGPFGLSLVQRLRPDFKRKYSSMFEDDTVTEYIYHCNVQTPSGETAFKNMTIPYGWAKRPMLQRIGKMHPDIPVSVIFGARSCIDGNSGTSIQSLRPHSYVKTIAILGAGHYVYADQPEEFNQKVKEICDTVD
row,IC50,SMILES
1,> 39.8 µM (inactive),CN(C)CCCN(C(=O)CCc1ccccc1)c1nc2ccc(Cl)cc2s1
2,6.37 µM,CCCS(=O)(=O)c1ncc(Cl)c(C(=O)Nc2ccc(C(=O)OC)cc2)n1
3,3.83 µM,Cc1ccc(NC(=O)c2nc(S(C)(=O)=O)ncc2Cl)cc1
4,> 39.8 µM (inactive),CN(C)CCCN(C(=O)c1cc2ccccc2oc1=O)c1nc2ccc(Cl)cc2s1
5,> 39.8 µM (inactive),COc1ccc(CC(=O)N2CCN(S(=O)(=O)c3ccc4c(c3)OCCCO4)CC2)cc1
6,1.62 µM,CS(=O)(=O)c1ncc(Cl)c(C(=O)Nc2ccc(C(F)(F)F)cc2)n1
7,> 39.8 µM (inactive),CN(C)CCCN(C(=O)Cc1ccc(F)cc1)c1nc2ccc(Cl)cc2s1
8,2.82 µM,COc1ccc(CCNC(=O)c2nc(S(=O)(=O)Cc3ccc(F)cc3)ncc2Cl)cc1OC
9,2.46 µM,Cc1ccc(CS(=O)(=O)c2ncc(Cl)c(C(=O)Nc3cccc(C(F)(F)F)c3)n2)cc1
10,5.9 µM,Cc1ccc(CS(=O)(=O)c2ncc(Cl)c(C(=O)N3CCN(C)CC3)n2)cc1
11,> 39.8 µM (inactive),CCCCCNC(=O)Nc1ccc2c(c1)Sc1ccccc1C(=O)N2C
12,> 39.8 µM (inactive),CCCC(=O)N(CCCN1CCOCC1)c1nc2ccc(Cl)cc2s1
13,3.36 µM,Cc1ccc(CS(=O)(=O)c2ncc(Cl)c(C(=O)NCc3ccc4c(c3)OCO4)n2)cc1
14,> 39.8 µM (inactive),CN1C(=O)c2ccccc2Oc2ccc(NC(=O)c3cccs3)cc21
15,4.37 µM,CN1C(=O)c2ccccc2Sc2ccc(NC(=O)NCCc3ccccc3)cc21
16,inactive,O=C(CCc1nc2ccccc2s1)N1CCN(S(=O)(=O)c2ccc3c(c2)OCCO3)CC1
17,> 39.8 µM (inactive),O=C(CCn1cnc2ccccc21)N1CCN(S(=O)(=O)c2ccc3c(c2)OCCO3)CC1
18,4.85 µM,Cc1ccc2c(CC(=O)N3CCN(S(=O)(=O)c4ccc5c(c4)OCCCO5)CC3)coc2c1C
19,> 39.8 µM (inactive),O=C(CCc1c[nH]c2ccccc12)N1CCN(S(=O)(=O)c2ccc3c(c2)OCCO3)CC1
20,inactive,Cc1ccc2cc(CC(=O)N3CCN(S(=O)(=O)c4ccc5c(c4)OCCO5)CC3)oc2c1
21,3.65 µM,CN(C(=O)c1nc(S(C)(=O)=O)ncc1Cl)c1ccccc1
22,> 39.8 µM (inactive),CN(C)CCCN(C(=O)C1CCCCC1)c1nc2cc(Cl)ccc2s1
23,8.4 µM,CCS(=O)(=O)c1ncc(Cl)c(C(=O)Nc2ccc(S(N)(=O)=O)cc2)n1
24,4.23 µM,CCS(=O)(=O)c1ncc(Cl)c(C(=O)Nc2ccc(C)cc2)n1

row,IC50,SMILES
1,> 39.8 µM (inactive),CC(C)N1C(=O)c2ccccc2Oc2ccc(NC(=O)c3ccccc3)cc21
2,1.76 µM,O=C(c1nc(S(=O)(=O)Cc2ccccc2)ncc1Cl)N(Cc1ccccc1)Cc1ccco1
3,inactive,O=C(Cc1ccc2c(c1)CCCC2)N1CCN(S(=O)(=O)c2ccc3c(c2)OCCO3)CC1
4,4.68 µM,NS(=O)(=O)c1ccc(NC(=O)c2nc(S(=O)(=O)Cc3ccccc3)ncc2Cl)cc1
5,> 39.8 µM (inactive),CC(NC(=O)CN1CCN(S(=O)(=O)c2ccc3c(c2)OCCCO3)CC1)c1cc2ccccc2o1 (configuration not stated)
6,6.17 µM,CCCS(=O)(=O)c1ccc(Cl)c(C(=O)Nc2ccc(C(=O)OCC)cc2)c1
7,> 39.8 µM (inactive),Cc1ccc(CS(=O)(=O)c2ncc(Cl)c(C(=O)Nc3nnc(C(C)C)s3)n2)cc1
8,> 39.8 µM (inactive),CCCCCCNC(=O)Nc1ccc2c(c1)Sc1ccccc1C(=O)N2C
9,> 39.8 µM (inactive),O=C(C1COc2ccccc2O1)N1CCN(S(=O)(=O)c2ccc3c(c2)OCCO3)CC1 (configuration not stated)
10,1.99 µM,CN1C(=O)c2ccccc2Sc2ccc(NC(=O)NCCCc3ccccc3)cc21
11,> 39.8 µM (inactive),COc1ccc(CC(=O)N2CCCN(S(=O)(=O)c3ccc(C)cc3)CC2)cc1OC
12,5.6 µM,CN1C(=O)c2ccccc2Sc2ccc(NC(=O)NCCc3cccs3)cc21
13,> 39.8 µM (inactive),CN1C(=O)c2ccccc2Oc2ccc(NC(=O)c3cc4ccccc4[nH]3)cc21
14,2.36 µM,O=C(Nc1ccc2ccccc2c1)c1nc(S(=O)(=O)Cc2ccccc2)ncc1Cl
15,> 39.8 µM (inactive),CCCC(=O)Nc1ccc2c(c1)C(=O)N(C)c1cc(C)ccc1O2
16,> 39.8 µM (inactive),CCCC(=O)Nc1ccc2c(c1)C(=O)N(C)c1ccccc1O2
17,inactive,CCCNC(=O)Nc1ccc2c(c1)N(CC)C(=O)c1ccccc1S2
18,> 39.8 µM (inactive),CN(C)CCCN(C(=O)C1CCCCC1)c1nc2cc(Br)ccc2s1
19,3.46 µM,CCc1ccc2c(CC(=O)N3CCN(S(=O)(=O)c4ccc5c(c4)OCCO5)CC3)coc2c1
20,> 39.8 µM (inactive),O=C(Cc1cccc(F)c1)N1CCN(S(=O)(=O)c2ccc3c(c2)OCCO3)CC1
21,inactive,CCCCCCCNC(=O)Nc1ccc2c(c1)Sc1ccccc1C(=O)N2C
22,> 39.8 µM (inactive),COc1ccc(OCC(=O)Nc2ccc3c(c2)N(C(C)C)C(=O)c2ccccc2O3)cc1
23,2.7 µM,Cc1ccc(CS(=O)(=O)c2ncc(Cl)c(C(=O)Nc3cccc4ccccc34)n2)cc1
